Results as given in ChEMBL document CHEMBL3091429, “Structure-activity relationships of retro-dihydrochalcones isolated from Tacca sp” (J Nat Prod, 2013).
pIC50: −log10 of the molar value. The source made the active and inactive calls. The rule behind the calls is not given here.

What was measured:
Tubulin (Sus scrofa) = Tubulin (Sus scrofa) (UniProt P02554+P02550); experiment: Inhibition of purified porcine tubulin polymerization 100 uM by spectrophotometry; format: protein assay
HeLa = experiment: Antiproliferative activity against human HeLa cells by SRB assay; format: functional, cell-based
PC-3 = experiment: Antiproliferative activity against human PC3 cells by SRB assay; format: functional, cell-based
A549 = experiment: Antiproliferative activity against human A549 cells by SRB assay; format: functional, cell-based

Sequence of Tubulin (Sus scrofa) (P02550 whole entry, looked up): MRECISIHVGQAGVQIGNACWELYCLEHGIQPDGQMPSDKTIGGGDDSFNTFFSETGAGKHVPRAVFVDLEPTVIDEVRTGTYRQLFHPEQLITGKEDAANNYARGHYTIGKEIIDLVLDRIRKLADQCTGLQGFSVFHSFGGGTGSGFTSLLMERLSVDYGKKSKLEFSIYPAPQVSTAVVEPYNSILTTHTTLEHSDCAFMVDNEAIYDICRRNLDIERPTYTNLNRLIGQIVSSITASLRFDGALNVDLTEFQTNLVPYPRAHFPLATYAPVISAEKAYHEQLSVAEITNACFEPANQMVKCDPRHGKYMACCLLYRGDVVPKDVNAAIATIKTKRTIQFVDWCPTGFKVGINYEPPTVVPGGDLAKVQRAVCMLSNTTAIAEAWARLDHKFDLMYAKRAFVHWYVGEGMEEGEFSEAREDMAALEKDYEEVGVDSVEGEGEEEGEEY
Sequence of Tubulin (Sus scrofa) (P02554 whole entry, looked up): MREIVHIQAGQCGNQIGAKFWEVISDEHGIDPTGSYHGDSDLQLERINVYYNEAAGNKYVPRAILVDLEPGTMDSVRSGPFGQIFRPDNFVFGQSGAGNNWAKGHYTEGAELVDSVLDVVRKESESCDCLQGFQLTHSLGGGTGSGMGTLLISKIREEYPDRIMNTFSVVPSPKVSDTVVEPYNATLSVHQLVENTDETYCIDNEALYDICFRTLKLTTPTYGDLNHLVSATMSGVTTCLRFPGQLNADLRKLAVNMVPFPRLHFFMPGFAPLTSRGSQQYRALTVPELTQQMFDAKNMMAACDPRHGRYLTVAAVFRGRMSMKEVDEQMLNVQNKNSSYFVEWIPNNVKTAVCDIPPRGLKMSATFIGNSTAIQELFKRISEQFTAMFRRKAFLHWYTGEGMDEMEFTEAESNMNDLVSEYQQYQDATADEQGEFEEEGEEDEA

| inhibition (Tubulin (Sus scrofa)) | pIC50 (HeLa) | pIC50 (PC-3) | pIC50 (A549) | Structure (SMILES) |
| --- | --- | --- | --- | --- |
| inactive |  |  |  | COC1=CC(=O)C(CCC(=O)c2ccc(OC)c(OC)c2)=C(OC)C1=O |
| Active | < 4.30 | < 4.30 | < 4.30 | COc1cc(OC)c(CCC(O)c2ccc3c(c2)OCO3)c(OC)c1 (configuration not stated) |
| inactive | < 4.30 | < 4.30 | < 4.30 | COc1ccc(C(=O)CCc2c(OC)cc(OC)c(OC)c2OC)cc1OC |
| 10% | 4.54 | < 4.30 | 4.39 | COc1cc(OC)c(CCC(=O)c2ccc(O)c(OC)c2)c(OC)c1 |
| Active |  |  |  | COc1cc(OC)c(CCC(=O)c2ccc(OC)c(O)c2)c(OC)c1 |
| 40% | 5.06 | 5.30 | 5.08 | COC1=CC(=O)C(CCC(=O)c2ccc3c(c2)OCO3)=C(OC)C1=O |
| Active | < 4.30 | < 4.30 | < 4.30 | COc1cc(O)c(CCC(=O)c2ccc(O)c(OC)c2)c(OC)c1 |
